Assay results as given in PubChem BioAssay (NCI).
“And” between values parts separate entries of the source, which are not always exact repeats. Equal values may be shown once.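 The compound was tested at five concentrations on cells cultured in 96-well plates, with a 48-hour exposure period. The concentration for 50% growth inhibition is given as GI50. Definition used: TGI = concentration required for complete inhibition of growth.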

Tests used:
Assay in all cases: growth of human tumour cells (NCI), 48 h
[1] = system: UO-31 renal
[2] = system: SNB-19 CNS
[3] = system: HT29 colon
[4] = system: UACC-62 melanoma
[5] = system: SF-268 CNS
[6] = system: CAKI-1 renal
[7] = system: COLO 205 colon
[8] = system: MALME-3M melanoma
[9] = system: OVCAR-8 ovarian
[10] = system: RPMI-8226 leukemia

CC1OC(O[C@@H]2C=C3CC[C@@H]4[C@H](CC[C@]5(C)[C@@H](c6ccc(=O)oc6)CC[C@]45O)[C@@]3(C)CC2)C(O)C(OC2OC(CO)C(O)C(O)C2O)C1O (some centres undefined)
TGI [1]: 0.00316 µM and 0.0263 µM
GI50 [2]: 0.00038 µM
TGI [2]: 0.113 µM and 0.0674 µM
TGI [3]: 0.0878 µM and 0.349 µM
TGI [4]: 0.0263 µM
TGI [5]: 0.00983 µM
TGI [6]: 0.0015 µM
GI50 [7]: 0.000949 µM
TGI [7]: 0.163 µM and 0.029 µM
GI50 [8]: 0.000628 µM
TGI [8]: 0.0143 µM
TGI [9]: 0.0162 µM and 0.0299 µM

COc1ccc([I+]c2ccc(OC)cc2)cc1
TGI [1]: > 100 µM
GI50 [2]: 20.9 µM
TGI [2]: > 100 µM
GI50 [3]: 5.54 µM
TGI [3]: > 100 µM
GI50 [4]: 29.9 µM
TGI [4]: > 100 µM
GI50 [5]: 12.6 µM
TGI [5]: > 100 µM
GI50 [6]: > 85.3 µM
TGI [6]: > 100 µM
GI50 [7]: 9.34 µM
TGI [7]: > 100 µM
GI50 [8]: 13.8 µM
TGI [8]: > 100 µM
GI50 [9]: 3.27 µM
TGI [9]: > 100 µM
GI50 [10]: 4.16 µM
TGI [10]: > 100 µM

COC(=O)C12Oc3ccc(-c4ccc5c(c4O)C(O)=C4C(=O)CC(C)C(O)C4(C(=O)OC)O5)c(O)c3C(O)=C1C(=O)CC(C)C2O (centres undefined)
TGI [1]: 0.858 µM
TGI [2]: > 100 µM
TGI [3]: 0.479 µM
TGI [4]: 1.37 µM
TGI [5]: 1.84 µM
TGI [6]: 4.54 µM
TGI [7]: 0.195 µM
TGI [9]: > 100 µM
TGI [10]: 0.31 µM

O=C1C(=C([O-])c2ccccc2)C(=O)c2ccccc21.O=C1C(=C([O-])c2ccccc2)C(=O)c2ccccc21.[Ni+2]
GI50 [1]: 27.2 µM
TGI [1]: > 100 µM
GI50 [2]: 58.8 µM
TGI [2]: > 100 µM
GI50 [3]: 77 µM
TGI [3]: > 100 µM
GI50 [4]: 36.8 µM
TGI [4]: > 100 µM
GI50 [6]: 33.9 µM
TGI [6]: > 100 µM
GI50 [8]: 75.4 µM
TGI [8]: > 100 µM
GI50 [9]: 48.1 µM
TGI [9]: > 100 µM
GI50 [10]: > 100 µM
TGI [10]: > 100 µM

COc1cc2c[n+](C)c3c4cc(OC)c(OCc5ccccc5)cc4c(OCc4ccccc4)cc3c2cc1OC
TGI [1]: > 100 µM
TGI [2]: 15.2 µM
TGI [3]: 15.5 µM
TGI [4]: 10.4 µM
TGI [5]: 17.4 µM
TGI [6]: > 77.3 µM
TGI [7]: 2.97 µM
TGI [8]: 10.7 µM
TGI [9]: 19.6 µM
TGI [10]: > 86 µM

O=S(O)c1cc(Cl)c(O)c(Cl)c1
TGI [1]: > 100 µM
TGI [2]: > 100 µM
TGI [3]: > 100 µM
TGI [4]: > 100 µM
TGI [5]: > 100 µM
TGI [8]: > 100 µM

CC(=O)OCC1OC(N=[N+]=[N-])C(OC(C)=O)C(OC(C)=O)C1OC1OC(COC(C)=O)C(OC(C)=O)C(OC(C)=O)C1OC(C)=O (centres undefined)
TGI [1]: > 100 µM
TGI [2]: > 100 µM
TGI [3]: > 100 µM
TGI [4]: > 100 µM
TGI [5]: > 100 µM
TGI [6]: > 100 µM
TGI [7]: > 100 µM
TGI [8]: > 100 µM
TGI [9]: > 100 µM
TGI [10]: > 100 µM

C=C1CCOC2(C(O)C(C)(O)CO)NC(=O)C1(O)NC2=O (centres undefined)
TGI [1]: > 100 µM
TGI [2]: > 100 µM
TGI [3]: > 100 µM
TGI [4]: > 100 µM
TGI [5]: > 100 µM
TGI [6]: > 100 µM
TGI [7]: > 100 µM
TGI [8]: > 100 µM
TGI [9]: > 100 µM
TGI [10]: > 100 µM

COC(=O)c1c(O)ccc2c1c1c(n2Cc2cccc(C)c2)C(=O)c2ccccc2C1
TGI [1]: > 75 µM
TGI [2]: > 75 µM
TGI [3]: 19.9 µM
TGI [4]: > 75 µM
TGI [5]: > 75 µM
TGI [6]: 46.3 µM
TGI [7]: 22.3 µM
TGI [8]: 69.5 µM
TGI [9]: > 75 µM
TGI [10]: 31 µM

C/C(=N\NC(N)=S)c1nc2ncccc2[nH]1
TGI [1]: 82.1 µM
TGI [2]: > 100 µM
TGI [3]: > 100 µM
TGI [4]: > 100 µM
TGI [5]: > 100 µM
TGI [6]: > 100 µM
TGI [7]: > 100 µM
TGI [8]: > 100 µM
TGI [9]: > 100 µM
TGI [10]: > 100 µM

COc1cc(O)c(Cc2ccccc2O)c(O)c1C(=O)CCc1ccccc1
TGI [1]: 23.4 µM
TGI [2]: 26.4 µM
TGI [3]: 33.4 µM
TGI [4]: 19.1 µM
TGI [5]: 33.5 µM
TGI [6]: 13 µM
TGI [7]: 16.5 µM
TGI [8]: 15.8 µM
TGI [9]: 28.1 µM
TGI [10]: 9.8 µM

Cc1cc(O)c2c(c1)C(C1c3cccc(O)c3C(=O)c3c(O)cc(C)cc31)c1cccc(O)c1C2=O (centres undefined)
TGI [1]: 1.78 µM
TGI [2]: 17.1 µM
TGI [3]: 7.62 µM
TGI [5]: 14 µM
TGI [6]: 7.06 µM
TGI [7]: 0.378 µM
TGI [8]: 1.25 µM
TGI [9]: 16.1 µM
TGI [10]: 0.8 µM

Cn1c(=O)c2[nH]c(SC/C(=N/O)c3ccc(Br)cc3)nc2n(C)c1=O
GI50 [2]: 2.94 µM
TGI [2]: 8.35 µM
GI50 [7]: > 100 µM
TGI [7]: > 100 µM
GI50 [8]: 2.4 µM
TGI [8]: 5.22 µM
GI50 [10]: 34.7 µM
TGI [10]: > 100 µM

COc1ccc2c3/c(=C\c4ccc(N(C)C)cc4)c4ccccc4n3[n+](C)c2c1
GI50 [1]: 0.484 µM
TGI [1]: 1.66 µM
GI50 [3]: 0.123 µM
GI50 [4]: < 0.0275 µM
TGI [4]: 0.224 µM
GI50 [5]: 0.437 µM
TGI [5]: 3.03 µM
GI50 [6]: 0.723 µM
TGI [6]: 2.51 µM
GI50 [7]: 0.029 µM
TGI [7]: 0.757 µM
GI50 [9]: 0.0474 µM
TGI [9]: 2.33 µM
GI50 [10]: < 0.0112 µM
TGI [10]: 0.136 µM
